From PMC12263422, “Cryo-EM structure of the human THIK-1 K2P K^+ channel reveals a lower Y gate regulated by lipids and anesthetics” (Nature Structural & Molecular Biology, 2025)
Values joined by “and” are separate entries in the source; they are usually repeats but may differ in a detail not shown here. Identical values can stand only once.

Assays:
[1] = tested on: THIK-1-Y273A (coexpressed with hM1R); experiment: Whole-cell currents in transiently transfected HEK-293 cells, GqPCR (hM1-R) mediated activation by Oxo-M, THIK-1-Y273A; format: cell-based, human; conditions: for Maximal currents with Oxo-M: THIK-1 Y273A + M1R
Method: Two-electrode voltage–clamp (TEVC) studies were performed in Xenopus oocytes. All animal use conformed to the Guide for the Care and Use of Laboratory Animals (NIH Publication 85–23), and all experiments using Xenopus toads were approved by the local ethics panels. Oocytes were stored at 17 °C in ND96 recording solution composed of (in mM): 96 NaCl, 2 KCl, 1.8 CaCl2, 1 MgCl2, 5 HEPES (pH 7.5 adjusted with NaOH and HCl), supplemented with Na-pyruvate (275 mg L^–1), theophylline (90 mg L^–1) and gentamicin (50 mg L^–1). Oocytes were injected with 1 ng mRNA for WT or mutant channels, and were incubated for 24–48 h at 17 °C. Two-electrode voltage clamp recordings were then performed as previously described[42],[43]. For macroscopic patch–clamp measurements, oocytes were obtained as described above incubated at 17 °C in a solution containing (mM): 54 NaCl, 30 KCl, 2.4 NaHCO3, 0.82 MgSO4 ×7 H2O, 0.41 CaCl2, 0.33 Ca(NO3)2 ×4 H2O and 7.5 TRIS (pH 7.4 adjusted with NaOH and HCl) for 1–4 days before use. Excised patch recordings in inside-out configuration conditions were performed at room temperature. Patch pipettes were made from thick-walled borosilicate glass GB 200TF-8P (Science Products), had resistances of 0.2–0.5 MΩ (tip diameter, 10–25 µm) and filled with a pipette solution (in mM): 120 KCl, 10 HEPES and 3.6 CaCl2 (pH 7.4 adjusted with KOH and HCl). Intracellular bath solutions and compounds were applied to the cytoplasmic side of excised patches for the various K^+ channels through a gravity flow multi-barrel pipette system. […] Currents were recorded with an EPC10 amplifier (HEKA Electronics) and sampled at 10 kHz or higher, with filtering set to 3 kHz (–3 dB) or higher, as appropriate for sampling rate. For measurements of GPCR activation, whole-cell currents were recorded for THIK-1 in transiently transfected HEK-293 cells. […] Single-channel currents were recorded with an Axopatch 200B amplifier through a Digidata 1440A digitizer (Molecular Devices). Data were filtered at 2 kHz and recorded at a 200-kHz sampling rate with the program Clampex (Molecular Devices). […]

[2] = molecular target: T1, WT THIK-1 (without M1R) (Homo sapiens, UniProt Q9HB14); experiment: Whole-cell currents in HEK-293 cells with Oxo-M, WT THIK-1 without M1R; format: cell-based; conditions: THIK-1 WT (no M1R)
T1 construct: expressed in transfected cells; host or cells: HEK-293
T1 sequence (Q9HB14 whole entry): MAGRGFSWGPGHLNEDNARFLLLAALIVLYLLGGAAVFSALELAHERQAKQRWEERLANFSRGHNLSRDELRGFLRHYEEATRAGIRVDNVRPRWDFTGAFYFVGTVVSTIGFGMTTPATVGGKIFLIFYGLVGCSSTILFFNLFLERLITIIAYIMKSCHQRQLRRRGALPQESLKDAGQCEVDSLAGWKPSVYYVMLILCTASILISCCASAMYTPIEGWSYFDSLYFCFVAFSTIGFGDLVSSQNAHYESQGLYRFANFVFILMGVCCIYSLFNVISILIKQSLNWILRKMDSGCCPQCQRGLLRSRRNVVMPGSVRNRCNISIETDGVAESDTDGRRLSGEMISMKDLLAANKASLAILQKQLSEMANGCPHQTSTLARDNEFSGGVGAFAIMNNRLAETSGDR
Description: Supplement 41594_2025_1497_MOESM2_ESM.xlsx, sheet "ExtData_Fig_S2e" | column: Maximal currents with Oxo-M (%); WT

[3] = tested on: WT THIK-1 (coexpressed with hM1R); experiment: Whole-cell currents in transiently transfected HEK-293 cells, GqPCR (hM1-R) mediated activation by Oxo-M, WT THIK-1; format: cell-based, human; conditions: for activation by Oxo-M: 10 μM Oxo-M; for Maximal currents with Oxo-M: THIK-1 WT + M1R
Method: Two-electrode voltage–clamp (TEVC) studies were performed in Xenopus oocytes. All animal use conformed to the Guide for the Care and Use of Laboratory Animals (NIH Publication 85–23), and all experiments using Xenopus toads were approved by the local ethics panels. Oocytes were stored at 17 °C in ND96 recording solution composed of (in mM): 96 NaCl, 2 KCl, 1.8 CaCl2, 1 MgCl2, 5 HEPES (pH 7.5 adjusted with NaOH and HCl), supplemented with Na-pyruvate (275 mg L^–1), theophylline (90 mg L^–1) and gentamicin (50 mg L^–1). Oocytes were injected with 1 ng mRNA for WT or mutant channels, and were incubated for 24–48 h at 17 °C. Two-electrode voltage clamp recordings were then performed as previously described[42],[43]. For macroscopic patch–clamp measurements, oocytes were obtained as described above incubated at 17 °C in a solution containing (mM): 54 NaCl, 30 KCl, 2.4 NaHCO3, 0.82 MgSO4 ×7 H2O, 0.41 CaCl2, 0.33 Ca(NO3)2 ×4 H2O and 7.5 TRIS (pH 7.4 adjusted with NaOH and HCl) for 1–4 days before use. Excised patch recordings in inside-out configuration conditions were performed at room temperature. Patch pipettes were made from thick-walled borosilicate glass GB 200TF-8P (Science Products), had resistances of 0.2–0.5 MΩ (tip diameter, 10–25 µm) and filled with a pipette solution (in mM): 120 KCl, 10 HEPES and 3.6 CaCl2 (pH 7.4 adjusted with KOH and HCl). Intracellular bath solutions and compounds were applied to the cytoplasmic side of excised patches for the various K^+ channels through a gravity flow multi-barrel pipette system. The intracellular solution had the following composition (in mM): 120 KCl, 10 HEPES, 2 EGTA and 1 pyrophosphate (pH adjusted with KOH and HCl). Currents were recorded with an EPC10 amplifier (HEKA Electronics) and sampled at 10 kHz or higher, with filtering set to 3 kHz (–3 dB) or higher, as appropriate for sampling rate. For measurements of GPCR activation, whole-cell currents were recorded for THIK-1 in transiently transfected HEK-293 cells. Cells were stimulated by a ramp protocol between −100 and +60 mV (holding potential, −80 mV). The pipette solution was composed of (in mM): 140 KCl, 2 MgCl2, 1 CaCl2, 2.5 EGTA and 10 HEPES (pH 7.3 adjusted with KOH and HCl). The extracellular bath solution had the following composition (in mM): 135 NaCl, 5 KCl, 2 MgCl2, 2 CaCl2, 10 glucose and 10 HEPES pH (pH 7.3 adjusted with NaOH and HCl). Oxotremorine M (Oxo-M) was added to extracellular bath solution to obtain the final concentration. Single-channel currents were recorded with an Axopatch 200B amplifier through a Digidata 1440A digitizer (Molecular Devices). Data were filtered at 2 kHz and recorded at a 200-kHz sampling rate with the program Clampex (Molecular Devices). […]

## C[N+](C)(C)CC#CCN1CCCC1=O [Oxo-M, Oxotremorine M]
[1]; 10 μM Oxo-M, THIK-1-Y273A
  activation by Oxo-M: no activation
[1]; individual recordings
  Maximal currents with Oxo-M: 93.100% and 97.920% and 94.800% and 93.870% and 99.320% and 100.290%
[1]; mean
  Maximal currents with Oxo-M: 96.55%
[2]; individual recordings
  Maximal currents with Oxo-M: 87.670% and 72.140% and 84.570% and 69.740% and 73.820% and 88.800% and 69.120% and 93.710% and 101.590% and 90.590% and 96.720% and 154.730% and 88.450%
[2]; mean
  Maximal currents with Oxo-M: 90.13%
[3]; WT THIK-1 with hM1-R
  activation by Oxo-M: ~ 50%
[3]; in the absence of hM1-R
  activation by Oxo-M: no activation
[3]; individual recordings
  Maximal currents with Oxo-M: 172.080% and 208.230% and 131.370% and 127.470% and 125.270% and 149.760% and 113.980% and 121.900% and 146.330% and 151.430% and 123.170% and 131.250% and 181.580% and 173.780% and 155.620% and 228.290% and 290.820% and 139.180% and 66.330% and 107.180% and 88.700%
[3]; mean
  Maximal currents with Oxo-M: 149.22%
